Assay results as given in ChEMBL document CHEMBL1126509, “Trisnorsqualene methyl hydroxylamine: a potent dual inhibitor of mammalian squalene epoxidase and oxidosqualene cyclase” (Bioorg Med Chem Lett, 1993).
pIC50: −log10 of the molar value.

How the values were obtained:
[1] = Inhibitory concentration at which 50% decrease in the activity of Squalene epoxidase and Oxidosqualene cyclase in pig liver microsomes; parameters: species or system Sus scrofa, Microsome
[2] = Inhibitory concentration at which 50% decrease in the activity of Squalene epoxidase and Oxidosqualene cyclase in pig liver microsomes; NI means no inhibition; parameters: species or system Sus scrofa, Microsome
[3] = Inhibitory concentration at which 50% decrease in the activity of Squalene epoxidase in pig liver microsomes; NI means no inhibition

pIC50 [1] | IC50 [2] | IC50 [3] | SMILES
3.70 | – | – | CC(C)=CCC/C(C)=C/CC/C(C)=C/CC/C=C(\C)CC/C=C(\C)CCC(O)C[N+](=O)[O-] (stereo not given)
< 3.40 | – | – | CC(C)=CCC/C(C)=C/CC/C(C)=C/CC/C=C(\C)CC/C=C(\C)CC/C=C/[N+](=O)[O-]
– | Not Active | Not Active | CC(C)=CCC/C(C)=C/CC/C(C)=C/CC/C=C(\C)CC/C=C(\C)CC/C=N/O
5.30 | – | – | CC(C)=CCC/C(C)=C/CC/C(C)=C/CC/C=C(\C)CC/C=C(\C)CCCN(C)O
